Consider two compounds from US20170121683A1, “ARYL HYDROCARBON RECEPTOR DISRUPTION AND ENHANCEMENT” (priority 2015, published 2017).

Structures are written as SMILES.

Format in all cases: cell-based, human
The subject of one data set is hESCs. The data set is described as follows: Viability of hESC-derived cells, Sytox Blue Live/Dead Stain. The conditions noted are these: 1 μM SR-1 or 10 nM TCDD. As to the method:
FIG. 8A. Non-adherent hematopoietic progenitor cells derived from hESCs were harvested at Day 6+3, Day 6+5, Day 6+7, and Day 6+9 time points and probed for gene expression by quantitative real-time PCR (qPCR). For each gene, Ct values were normalized to GAPDH at each time point and data is presented as relative fold-change as compared to undifferentiated hESCs. […] FIG. 8B Undifferentiated hESCs were cultured in the presence of 1 μM SR-1, 10 nM TCDD, or DMSO vehicle control for 96 hours and probed for gene expression by qPCR. For each gene, Ct values were normalized to GAPDH at each time point and data is presented as relative fold-change as compared to DMSO treated hESCs. n=3, error bars represent SEM, *p<0.05 assessed by two-way ANOVA+Tukey-Kramer multiple comparisons post-hoc test. FIG. 8C. Both adherent and non-adherent cell fractions treated with either DMSO, SR-1, or TCDD were harvested at Day 6+3, Day 6+6, and Day 6+9 and probed for viability with Sytox Blue Live/Dead Stain. […]
Harvested cells were incubated with PE-Cy7 CD34 (BD Biosciences, San Jose, Calif.) in conjunction with APC CD31, APC CD41a, APC CD43, or APC CD45 for 30 minutes at 4° C. in FACS buffer (DPBS containing 2% fetal bovine serum and 0.1% sodium azide). […] Cells were analyzed using an LSRII flow cytometer (BD Biosciences) and data were analyzed using FlowJo software (TreeStart, Ashland, Oreg.).

For data set [1], the system named is hESC-derived hematopoietic cells. The data set can be described thus: qRT-PCR of lymphoid-specific gene expression. Details: expression of TBX21/TBET, fold vs DMSO-treated control / expression of EOMES, fold vs DMSO-treated control: concentration or dose not given beside the values. The note with it: Day 11+28. The method, then:
FIG. 13A. Schema of hESC differentiation into lymphoid cells as spin-embryoid bodies (spin-EBs). hESCs are made into spin-EBs at Day 0 and cultured in Stage 1 conditions with defined cytokines to promote mesoderm development for 11 days. At Day 11, spin-EBs are transferred onto OP9-DL1 in the presence of NK cell differentiation media (NKDM) to promote lymphoid differentiation. Cells are treated beginning at Day 11+0 with either 1 μM SR-1, 10 nM TCDD, or DMSO vehicle control with media exchanges and/or harvesting performed every week for up to 4 weeks. FIG. 13B. At Day 11, differentiated spin-EBs (photo) are phenotyped for CD34^+CD45^+ expression and transferred to OP9-DL1 stroma in NKDM. Non-adherent hematopoietic cells cultured either in the presence of DMSO, SR-1, or TCDD were assessed for developing NK cell immunophenotype based on CD56^+CD45^+ expression at Days 11+21, and 11+28; representative flow cytometry plots from one differentiation are shown. FIG. 13C. Quantification of fold-change in total percentage of CD56^+CD45^+ cells at both Day 11+21 and Day 11+28 when treated with DMSO, SR-1, or TCDD. SR-1 and TCDD treatments for each differentiation are normalized to DMSO controls. n=3 independent differentiation experiments, error bars represent SEM, *p<0.05 as assessed with two-way ANOVA+Tukey-Kramer multiple comparisons post-hoc test. FIG. 13D. Non-adherent hematopoietic progenitor cells derived from hESCs differentiated in the presence of SR-1, TCDD, or DMSO controls were harvested at Day 11+28 and probed for gene expression by quantitative real-time PCR (qRT-PCR). For each gene, Ct values were normalized to GAPDH at each time point and data is presented as relative fold-change to DMSO treated controls. n=3, error bars represent SEM, *p<0.05, #p<0.01 using student's t-test. FIG. 13E. Non-adherent hematopoietic progenitor cells derived from hESCs differentiated in the presence of SR-1, TCDD, or DMSO controls were harvested at Day 11+28 and assessed for CD107a expression following 4 hours of co-culture with K562 target cells at 2:1 effector:target ratio. SSC: side scatter. Representative flow cytometry plots are shown from one experiment. FIG. 13F. Quantification of percentage of CD107a^+ cells when treated with DMSO, SR-1, or TCDD at Day 11+28, n=2-3 replicates.
Spin-EBs were generated as described above (see also Knorr et al. Stem Cells Dev. 2013; 22(13):1861-9; Ni et al. Embryonic Stem Cell Immunobiol. Methods Protoc. Methods Mol. Biol. 2013; 1029:33-41; Hermanson et al. Stem Cells. 2016; 34(1):93-101). Following 11 days of mesoderm conditioning (Day 11), spin-EBs were collected and analyzed by flow cytometry to assess hematopoietic progenitor cell potential (see flow cytometry methods for antibodies used) (FIG. 4A). Spin-EBs yielding >30% CD34^+CD45^+ cells were transferred onto 24-well plates coated with irradiated OP9-DL1 cells (as described in Martin et al. Blood. 2008; 112(7):2730-7; La Motte-Mohs et al. Blood. 2005; 105(4):1431-9) (now defined as Day 11+0). EBs and OP9-DL1 were co-cultured in NK differentiation media (NKDM) supplemented initially with SCF, IL-15, IL-7, Flt3-L (all R&D Systems), and IL-3 (PeproTech) for one week; DMSO, SR-1, or TCDD were also added at Day 11+0. Every week, a one-half media change with NKDM supplemented with SCF, IL-15, IL-7, Flt3-L, and drugs was performed. hESCs were differentiated for four additional weeks (Day 11+28) and non-adherent cells were harvested for analysis. […]
For orientation: Real-time PCR tracks product formation cycle by cycle.

The test system of another data set is hESC-derived NK cells. The data set can be described thus: CD107a degranulation assay with K562 target cells. The conditions noted are these: Day 11+28, K562 targets at 2:1 effector:target ratio, 4 hours.

As for `CC(C)n1cnc2c(NCCc3ccc(O)cc3)nc(-c3csc4ccccc34)nc21` [SR-1, StemReginin-1], in the data set with hESCs, the “cytotoxic effects on hESCs” value is on record as “no significant cytotoxic effects”. Besides, in data set [1], the “expression of EOMES, fold vs DMSO-treated control” value amounted to 5.12±0.52 fold; the “expression of ID2, fold vs DMSO-treated control” value is 2.49±0.003 fold; the “expression of TBX21/TBET, fold vs DMSO-treated control” value is on record as 3.44±0.55 fold. Also, the “CD107a expression (percentage of CD107a+ cells)” value with hESC-derived NK cells is on record as 58.1±0.67%.
Turning to `Clc1cc2c(cc1Cl)Oc1cc(Cl)c(Cl)cc1O2` [TCDD, 2,3,7,8-tetrachlorodibenzo-p-dioxin], the “cytotoxic effects on hESCs” value with hESCs was “no significant cytotoxic effects”. For the same compound, in data set [1], the “expression of EOMES, fold vs DMSO-treated control” value turned out to be 1.84±0.11 fold and the “expression of TBX21/TBET, fold vs DMSO-treated control” value turned out to be 1.56±0.07 fold. For the same compound, the “CD107a expression (percentage of CD107a+ cells)” value in the data set with hESC-derived NK cells turned out to be 36.8±2.1%.
